Reference: PMC5998037, “Glutamine 89 is a key residue in the allosteric modulation of human serine racemase activity by ATP” (Scientific Reports, 2018)
Substitutions are numbered along the chain they refer to. Values joined by “and” are separate entries in the source; they are usually repeats but may differ in a detail not shown here. Equal values may be shown once. Read-outs that look alike come from different tables or passages of the source. One block for each molecule: values may come before it.

Experiments:
[1] = biological target: T1, Q89M-hSR (Homo sapiens, UniProt Q9GZT4, Q89M); assay: Activation of L-Ser dehydratase activity by ATP; format: biochemical
T1 construct: hexa-His; made in house; host or cells: E. coli BL21 CodonPlus (DE3)-RIL with GroEL/GroES
T1 sequence (Q9GZT4 1-340 Q89M): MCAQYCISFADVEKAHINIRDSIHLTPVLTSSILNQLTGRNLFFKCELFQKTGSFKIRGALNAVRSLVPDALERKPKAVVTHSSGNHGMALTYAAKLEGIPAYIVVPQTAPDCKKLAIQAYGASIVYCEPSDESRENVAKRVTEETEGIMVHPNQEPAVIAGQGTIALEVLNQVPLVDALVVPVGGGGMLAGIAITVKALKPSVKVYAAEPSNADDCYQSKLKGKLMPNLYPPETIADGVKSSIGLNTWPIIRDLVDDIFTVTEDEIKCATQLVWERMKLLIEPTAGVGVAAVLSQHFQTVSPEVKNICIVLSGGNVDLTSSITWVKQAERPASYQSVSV
Protocol: (§1) Nicotinamide adenine dinucleotide (NADH) consumption was followed at 340 nm using a Varian Cary4000 spectrophotometer. The assay solution in buffer A contained 5 mM DTT, 30 U/ml LDH and 300 μM NADH. The concentration of magnesium used in the assay was always higher than or equal to the concentration of ATP. If not otherwise stated, it was set to 2 mM. […] The concentration used in the assay for D-Ser dehydration was 3.1 and 6.0 μM in the presence and absence of ATP, respectively.
(§2) The fluorescence emission intensity was collected at 480 nm for glycine titration, at 492 nm for ATP titration and at 478 nm for ATP titration in the presence of glycine. The kinetic parameters were calculated using the Michaelis –Menten equation:3 v0=Vmax⋅[S]/Km+[S] where v0 is the initial enzymatic rate, Vmax is the rate at substrate saturation, Km is the Michaelis constant and [S] is the substrate concentration.

[2] = biological target: T2, Q89A-hSR (Homo sapiens, UniProt Q9GZT4, Q89A); assay: Activation of L-Ser dehydratase activity by ATP; format: biochemical
T2 construct: hexa-His; made in house; host or cells: E. coli BL21 CodonPlus (DE3)-RIL with GroEL/GroES
T2 sequence (Q9GZT4 1-340 Q89A): T1 sequence (Q9GZT4 1-340 Q89M) with M89A
Protocol: as §1, §2

[3] = biological target: T1, Q89M-hSR; assay: D-Ser dehydration (LDH-coupled assay); format: biochemical; details: D-Ser dehydration by Q89M-hSR, 2 mM ATP vs absence of nucleotide
Protocol: (§3) The initial velocity of L-serine dehydration by hSR was monitored by a coupled assay with lactate dehydrogenase (LDH)[5] as previously reported. Nicotinamide adenine dinucleotide (NADH) consumption was followed at 340 nm using a Varian Cary4000 spectrophotometer. The assay solution in buffer A contained 5 mM DTT, 30 U/ml LDH and 300 μM NADH. The concentration of magnesium used in the assay was always higher than or equal to the concentration of ATP. If not otherwise stated, it was set to 2 mM. The protein concentration used in the assay for L-Ser dehydration was 0.4 and 1.6 μM in the presence and absence of 2 mM ATP, respectively. The concentration used in the assay for D-Ser dehydration was 3.1 and 6.0 μM in the presence and absence of ATP, respectively.
(§4) The half-maximal activation (EC50) caused by ATP binding to hSR was calculated with Eq. (1):1 vi/v0=a⋅[ATP]/EC50+[ATP] where vi is the velocity of the reaction catalysed by the enzyme in presence of a defined ATP concentration, v0 is the velocity of the reaction catalysed by the enzyme in the absence of ATP and a is the difference between the maximum and the basal activity. The dissociation constant (KD) of ligands for hSR calculated by fluorimetric titrations was calculated with Eq. (2):2 y=y0+a⋅[L]/KD+[L] where y is the fluorescence emission intensity, [L] is the ligand concentration, y0 is an offset and a is the amplitude. The fluorescence emission intensity was collected at 480 nm for glycine titration, at 492 nm for ATP titration and at 478 nm for ATP titration in the presence of glycine. The kinetic parameters were calculated using the Michaelis –Menten equation:3 v0=Vmax⋅[S]/Km+[S] where v0 is the initial enzymatic rate, Vmax is the rate at substrate saturation, Km is the Michaelis constant and [S] is the substrate concentration. Catalytic efficiency for the dehydratase activity of Q89A-hSR on D-Ser was calculated at [D-Ser] < Km, where equation (3) becomes v0≅Vmax/Km .

[4] = biological target: T2, Q89A-hSR; assay: D-Ser dehydration (LDH-coupled assay); format: biochemical; details: D-Ser dehydration by Q89A-hSR, ATP vs absence of nucleotide
Protocol: as §3, §4

[5] = biological target: T3, hSR (Homo sapiens, UniProt Q9GZT4); assay: D-Ser dehydration (LDH-coupled assay); format: biochemical; details: D-Ser dehydration by hSR
T3 construct: His tag; made in house; host or cells: Escherichia coli (co-expressed with chaperones)
T3 sequence (Q9GZT4 1-340): T1 sequence (Q9GZT4 1-340 Q89M) with M89Q
Protocol: as §3, §4

[6] = biological target: T3, hSR; set-up: method as in PMID 23992455; details: cited from earlier work; for Kd: hSR
[7] = biological target: T1, Q89M-hSR; assay: L-Ser dehydration (LDH-coupled assay); format: biochemical; details: L-Ser dehydration by Q89M-hSR, 2 mM ATP vs absence of nucleotide
Protocol: as §3, §4

[8] = biological target: T2, Q89A-hSR; assay: L-Ser dehydration (LDH-coupled assay); format: biochemical; details: L-Ser dehydration by Q89A-hSR, 2 mM ATP vs absence of nucleotide
Protocol: as §3, §4

[9] = biological target: T3, hSR; set-up: method as in PMID 23992455; details: wt hSR, cited from earlier work
[10] = biological target: T1, Q89M-hSR; assay: Fluorimetric titrations (PLP fluorescence emission); format: binding
Protocol: Fluorescence emission spectra upon excitation at 412 nm were collected using a FluoroMax-3 fluorometer (HORIBA Jobin Yvon, Kyoto, Japan) at 20.0 ± 0.5 °C. […] Binding of either glycine or ATP was measured by direct titrations of the protein solution in the range 0–1.2 mM and 0–1.0 mM, respectively. […] Spectra were corrected for buffer contribution. Far-UV circular dichroism spectra (195–260 nm) were collected using a JASCO J-715 spectropolarimeter (Easton, MD, USA). […] Each spectrum is the average of three independent measurements.
as §2

[11] = biological target: T1, Q89M-hSR; assay: L-Ser racemisation (DAAO-coupled discontinuous assay); format: biochemical; details: L-Ser racemisation by Q89M-hSR, 2 mM ATP vs absence of nucleotide
Protocol: (§5) The formation of D-serine as a function of L-serine concentration was determined using a discontinuous assay, based on oxidation of D-serine by the enzyme DAAO (Sigma Aldrich, A5222)[18],[37],[54]. This reaction produces hydrogen peroxide, that is used by the horseradish peroxidase to oxidize o-dianisidine dihydrochloride to form a chromophoric product. After the addition of sulphuric acid to increase the solubility, the concentration of this product can be measured at 550 nm. L-serine at various final concentrations was added to buffer A containing 1.5 µM hSR, in the absence and presence of 2 mM ATP. The reaction mixture was incubated at 37 °C and aliquots were periodically removed to determine D-serine concentration. L-serine was purified from any D-serine contaminations through 48 hours of incubation with 400 U/ml of DAAO and 100 U/ml of catalase, which were subsequently thermally inactivated. Absolute D-serine concentrations were determined using calibrations curves obtained by reacting known D-serine concentrations with DAAO. Absorbance signal was acquired by a Halo LED 96 plate reader (Dynamica Scientific, UK).
as §4, with “The kinetic parameters were calculated using the Michaelis –Menten equation:3 v0=Vmax⋅[S]/Km+[S] where v0 is the initial enzymatic rate, Vmax is the rate at substrate saturation, Km is the Michaelis constant and [S] is the substrate concentration.” left out

[12] = biological target: T2, Q89A-hSR; assay: as above; format: biochemical; details: L-Ser racemisation by Q89A-hSR, 2 mM ATP vs absence of nucleotide
Protocol: as §5
as §4, with “The kinetic parameters were calculated using the Michaelis –Menten equation:3 v0=Vmax⋅[S]/Km+[S] where v0 is the initial enzymatic rate, Vmax is the rate at substrate saturation, Km is the Michaelis constant and [S] is the substrate concentration.” left out

[13] = biological target: T3, hSR; assay: as above; format: biochemical; details: L-Ser racemisation by hSR, 2 mM ATP vs absence of nucleotide
Protocol: as §5
as §4, with “The kinetic parameters were calculated using the Michaelis –Menten equation:3 v0=Vmax⋅[S]/Km+[S] where v0 is the initial enzymatic rate, Vmax is the rate at substrate saturation, Km is the Michaelis constant and [S] is the substrate concentration.” left out

[14] = biological target: T3, hSR; assay: L-Ser dehydration (LDH-coupled assay); format: biochemical; details: hSR saturated with ATP
Protocol: as §3, §4

[15] = system: StTdcB; set-up: method as in PMID 17046821; details: 5 mM AMP; cited from earlier work
[16] = 2 mM ATP, preliminary, data not shown

Structure (SMILES): N[C@@H](CO)C(=O)O [L-Ser, L-serine]
dehydratase activity efficiency relative to racemisation [14]: 15 fold

Structure (SMILES): NCC(=O)O [Glycine]
Kd ([6]; ligand 2 ATP): 470 ± 30 µM
Kd ([6]; no ligand 2): 7000 ± 300 µM
fold higher affinity for Q89M-hSR (vs wt hSR) ([10]; Q89M-hSR vs hSR): more than 60 fold
Kd ([10]; Q89M-hSR, ligand 2 ATP (2 mM)): 28 ± 3 µM
Kd ([10]; Q89M-hSR, no ligand 2 (absence of ATP)): 110 ± 2 µM

Structure (SMILES): Nc1ncnc2c1ncn2[C@@H]1O[C@H](COP(=O)(O)O)[C@@H](O)[C@H]1O [AMP]
fold decrease in Km [15]: 7.7 fold
fold increase in Vmax [15]: 3 fold

Now from value to molecule, other results behind:

fold increase of specific dehydratase activity [1, 16]: about 4 fold
effect on activity of further addition of ATP ([1]; ATP up to 10 mM): not increased
cooperativity of ATP binding (activity assay) ([1]; saturating 300 mM L-Ser): non-cooperative
EC50 ([1]; saturating 300 mM L-Ser, read-out: half-maximal activation (EC50) by ATP, L-Ser dehydratase activity): 21 ± 2 µM
fold increase of specific dehydratase activity [2, 16]: about 4 fold
effect on activity of further addition of ATP ([2]; ATP up to 10 mM): not increased
cooperativity of ATP binding (activity assay) ([2]; saturating 300 mM L-Ser): non-cooperative
Increase (fold increase of catalytic efficiency kcat/Km in the presence of ATP) [3]: 2.8 fold
Increase (fold increase of catalytic efficiency kcat/Km in the presence of ATP) [4]: 2.3 fold
Increase (fold increase of catalytic efficiency kcat/Km in the presence of ATP) ([5]; 2 mM ATP vs absence of nucleotide): 4.0 fold
Increase (fold increase of catalytic efficiency kcat/Km in the presence of ATP) [7]: 3.9 fold
Increase (fold increase of catalytic efficiency kcat/Km in the presence of ATP) [8]: 3.3 fold
difference between KD and EC50 of ATP ([10]; Q89M-hSR, KD without substrate vs EC50 with 300 mM L-Ser): 6 fold
cooperativity of ATP binding (fluorimetric titration) ([10]; Q89M-hSR, absence of substrate): no cooperativity
fold increase in fluorescence emission intensity upon ATP binding ([10]; Q89M-hSR, excitation at 412 nm, absence of substrate): 1.65 fold
Kd ([10]; Q89M-hSR, ligand 2 Glycine (1 mM)): 48 ± 5 µM
Kd ([10]; Q89M-hSR, no ligand 2 (absence of substrate/glycine)): 154 ± 13 µM
Increase (fold increase of catalytic efficiency kcat/Km in the presence of ATP) [11]: 1.8 fold
Increase (fold increase of catalytic efficiency kcat/Km in the presence of ATP) [12]: 1.6 fold
Increase (fold increase of catalytic efficiency kcat/Km in the presence of ATP) [13]: 2 fold and 1.9 fold
Structure (SMILES): Nc1ncnc2c1ncn2[C@@H]1O[C@H](COP(=O)(O)OP(=O)(O)OP(=O)(O)O)[C@@H](O)[C@H]1O [ATP]
Kd ([6]; ligand 2 Glycine): 4.9 ± 0.6 µM
Hill coefficient of nucleotide binding ([6]; human enzyme): about 2
Hill coefficient n, fluorimetric titration with ATP ([6]; wt hSR, sigmoidal fit): 1.8 ± 0.1
EC50 ([6]; wt hSR, sigmoidal fit, read-out: EC50 of ATP, fluorimetric titration): 257 ± 10 µM
fold increase of specific dehydratase activity ([9]; 2 mM ATP): 7 fold
Hill coefficient n of ATP dependence of L-Ser dehydratase activity ([9]; sigmoidal fit): 1.7 ± 0.2 and 1.7
EC50 ([9]; sigmoidal fit, read-out: half maximal effective concentration of ATP (EC50), L-Ser dehydratase activity): 220 ± 10 µM

kcat ([5]; −ATP): 0.0283 ± 0.0017 s⁻¹
Structure (SMILES): N[C@H](CO)C(=O)O [D-Ser, D-serine]
